Laboratory results taken from US20090264415A2 (priority 2004, published 2009).
Read-outs that look alike come from different tables or passages of the source.

Tests used:
[1] = system: production of human TNF-α by PBMC in response to LPS; test: TNF-α assay (LPS-stimulated PBMC, sandwich ELISA); format: cell-based; conditions: LPS 1 μg/ml, 72 hours, read-out: TNF α
How it was run: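 Human PBMC isolated from heparinised blood by density gradient (10^6 cells/ml) stimulated with LPS at 1 μg/ml final, with test compound at 0.1, 1 and 10 μM, 72 h at 37° C, 5% CO2. Supernatant TNF-α quantified by sandwich ELISA against recombinant standard curve; % suppression calculated.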

[2] = system: phosphodiesterase-4 (PDE-4) extract from U937 cells; test: Phosphodiesterase-4 inhibiting activity (isotopic two-step method); format: biochemical
[3] = system: peripheral blood mononuclear cells (PBMC) stimulated with allogeneic PBMC or EBV-transformed human B cells (RPMI1788); test: Mixed lymphocyte reaction (MLR) assay; format: cell-based; conditions: 50% suppression of the MLR, [3H]-thymidine incorporation, read-out: MLR
How it was run: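 Responder PBMC co-cultured in triplicate with 30 Gy-irradiated allogeneic PBMC or RPMI1788 B cells plus compound (DMSO stock 10 mM, diluted in medium). After 5 days at 37° C, 1 μCi [3H]-thymidine added for 16 h more; incorporated cpm counted and proliferation inhibition calculated.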

Row | Compound | melting point | further results
1 | CC(=O)Nc1nc(OC(C)C)c2nc(-c3ccc(F)cc3)ccc2n1 | 196 to 197 °C | –
2 | CCC(C)Oc1nc(N)nc2ccc(-c3cccc(F)c3)nc12 (stereo not shown) | 158 to 159 °C | –
3 | CC(=O)Nc1nc(OCC(C)C)c2nc(Cl)ccc2n1 | 168 °C | –
4 | CC(C)Oc1nc(N)nc2ccc(-c3ccc(F)cc3)nc12 | 191 to 192 °C | –
5 | CC(C)COc1nc(N)nc2ccc(-c3ccccc3F)nc12 | 165 °C | –
6 | CCC(C)Oc1nc(N)nc2ccc(-c3ccc(F)cc3)nc12 (stereo not shown) | 148 °C | –
7 | CC(C)COc1nc(N)nc2ccc(-c3cccc(F)c3)nc12 | 185 °C | –
8 | CCOc1nc(NC(C)=O)nc2ccc(Cl)nc12 | 233 °C | –
9 | CC(=O)Nc1nc(OC(C)C)c2nc(Cl)ccc2n1 | 244 °C | –
10 | CCCCOc1nc(N)nc2ccc(-c3ccc(F)cc3)nc12 | 172 to 173 °C | –
11 | CC(C)COc1nc(N)nc2ccc(-c3ccc(F)cc3)nc12 | 196 °C | –
12 | CC(C)Oc1nc(N)nc2ccc(-c3cccc(F)c3)nc12 | 200 to 201 °C | –
13 | CC(=O)Nc1nc2ccc(Cl)nc2c(=O)[nH]1 | 317 to 319 °C | –
14 | CCCCCOc1nc(NC(C)=O)nc2ccc(Cl)nc12 | 174 °C | –
15 | Nc1nc(OCc2ccccc2)c2nc(-c3ccccc3F)ccc2n1 | 200 to 202 °C | –
16 | CCCOc1nc(NC(C)=O)nc2ccc(Cl)nc12 | 191 °C | –
17 | CCCCCOc1nc(N)nc2ccc(-c3ccccc3F)nc12 | 136 to 137 °C | –
18 | CCC(C)Oc1nc(NC(C)=O)nc2ccc(Cl)nc12 (stereo not shown) | 143 to 144 °C | –
19 | Nc1nc(OCc2ccccc2)c2nc(-c3cccc(F)c3)ccc2n1 | 199 to 200 °C | –
20 | CCOc1nc(N)nc2ccc(-c3cccc(F)c3)nc12 | 174 °C | –
21 | CCOc1nc(N)nc2ccc(-c3ccccc3F)nc12 | 182 °C | –
22 | CCOc1nc(N)nc2ccc(-c3ccc(F)cc3)nc12 | 188 to 189 °C | –
23 | COc1ccc(-c2ccc3nc(N)nc(N4CCN(c5ccccn5)CC4)c3n2)cc1OC [Example 47, 2-amino-4-(2-pyridyl-piperazin-1-yl)-6-(3,4-dimethoxyphenyl)-pyrido[3,2-d]pyrimidine] | – | IC50 [1]: 50 nM; PDE-4 (% inhibition) ([2]; @ 0.05 μM): 64% @ 0.05 μM; IC50 [3]: 300 nM
24 | COc1ccc(-c2ccc3nc(N)nc(N4CCN(C(=O)Nc5ccc(F)cc5)CC4)c3n2)cc1OC [Example 56, 2-amino-4(N-4-fluoro-phenyl-carbamoyl-piperazin-1-yl)-6-(3,4-dimethoxy-phenyl)-pyrido[3,2-d]pyrimidine] | – | IC50 [1]: 70 nM; PDE-4 (% inhibition) ([2]; @ 0.1 μM): 74% @ 0.1 μM; IC50 [3]: 3 nM
25 | COc1ccc(-c2ccc3nc(N)nc(N4CCN(C(=O)Nc5ccc(F)c(Cl)c5)CC4)c3n2)cc1OC [Example 57, 2-amino-4(N-3-chloro-4-fluoro-phenyl-carbamoyl-piperazin-1-yl)-6-(3,4-dimethoxyphenyl)-pyrido[3,2-d]pyrimidine] | – | IC50 [1]: 300 nM; PDE-4 (% inhibition) ([2]; @ 0.1 μM): 74% @ 0.1 μM; IC50 [3]: 4 nM
26 | COc1ccc(-c2ccc3nc(N)nc(N4CCN(c5ccc(F)cc5)CC4)c3n2)cc1OC [Example 43, 2-amino-4-(4-fluorophenyl-piperazin-1-yl)-6-(3,4-dimethoxyphenyl)-pyrido[3,2-d]pyrimidine] | – | IC50 [1]: 90 nM; PDE-4 (% inhibition) ([2]; @ 0.09 μM): 61% @ 0.09 μM; IC50 [3]: 300 nM
27 | CCOC(=O)C1CCN(c2nc(N)nc3ccc(-c4ccc(OC)c(OC)c4)nc23)CC1 [Example 26, 2-amino-4-[4-(ethoxycarbonyl)piperidin-1-yl]-6-(3,4-dimethoxyphenyl)pyrido[3,2-d]pyrimidine] | – | IC50 ([1]; Homo sapiens, PBMC): 60 nM; IC50 ([2]; 1.01 μM [3H]cAMP+cAMP): 250 nM; IC50 ([3]; Homo sapiens, RPMI-1788): 2600 nM
28 | COc1ccc(-c2ccc3ncnc(N4CCN(C(=O)Nc5cccc(Cl)c5)CC4)c3n2)cc1OC(C)C [Example 214, 4-[N-(3-chloro-phenylcarbamoyl)-piperazin-1-yl]-6-(3-isopropoxy-4-methoxy-phenyl)-pyrido[3,2-d]pyrimidine] | – | IC50 ([1]; Homo sapiens, PBMC): 300 nM; PDE-4 (% inhibition) ([2]; @ 0.3 μM): 61% @ 0.3 μM; IC50 ([3]; Homo sapiens, RPMI-1788): 50 nM
